{"source": "patent US20030207891A1", "about": "“Combination therapy for modulating the human sexual response” (Zonagen, Inc., priority 1997, published 2003)", "key": {"corpus cavernosum": {"test_system": "corpus cavernosum", "details": "cited from earlier work; for erection after injection directly into the corpus cavernosum: hypodermic needle; for duration of erection after injection: intracavernosal, appropriate dose"}, "[1]": {"test_system": "male erectile dysfunction", "details": "25 mg and 50 mg; cited from earlier work"}, "impotentia erectionis": {"test_system": "impotentia erectionis", "details": "buccal, 100 I.U. three times a day for 14 days; cited from earlier work"}, "[2]": {"test_system": "spontaneous erections in men", "test": "Effect of phentolamine and a phosphodiesterase inhibitor on spontaneous erections in men (Example 3)", "type": "in vivo, human", "details": "alone, no sexual stimulation", "text": "Example 3 describes a study on the effect of phentolamine and a phosphodiesterase inhibitor on spontaneous erections in men.\nPapaverine, a known non-specific phosphodiesterase inhibitor, in combination with phentolamine mesylate was compounded in a rapidly dissolving formulation as set out in Table 5 except that papaverine at the doses indicated below was substituted for Sildenafil."}, "impotent men": {"test_system": "impotent men", "details": "ingestion; cited from earlier work"}}, "note": "Counter-ions that a name gives are not always drawn."}
{"compound": "CCN(CC)CCOC(=O)C(Cc1cccc2ccccc12)CC1CCCO1", "note": "(mixture of isomers) [naftidrofuryl]", "values": [{"measurement": "erection after injection directly into the corpus cavernosum", "setting": "corpus cavernosum", "value": "caused erection"}]}
{"compound": "CCCc1nn(C)c2c(=O)[nH]c(-c3cc(S(=O)(=O)N4CCN(C)CC4)ccc3OCC)nc12", "note": "[Sildenafil, 5-[2-ethoxy-5-(4-methylpiperazine-1-ylsulfonyl)phenyl]-1-methyl-3-proplyl-6,7-dihydro-1-H-pyrazolo[4,3-d]pyrimidin-7-one]", "values": [{"measurement": "effectiveness at various doses", "setting": "[1]", "value": "effective"}]}
{"compound": "CN(C)CCCN1c2ccccc2CCc2ccccc21", "note": "[imipramine]", "values": [{"measurement": "erection after injection directly into the corpus cavernosum", "setting": "corpus cavernosum", "value": "caused erection"}]}
{"compound": "CC[C@H](C)[C@@H]1NC(=O)[C@H](Cc2ccc(O)cc2)NC(=O)[C@@H](N)CSSC[C@@H](C(=O)N2CCC[C@H]2C(=O)N[C@@H](CC(C)C)C(=O)NCC(N)=O)NC(=O)[C@H](CC(N)=O)NC(=O)[C@H](CCC(N)=O)NC1=O", "note": "[oxytocin]", "values": [{"measurement": "improvement of impotentia erectionis, patients treated", "setting": "impotentia erectionis", "value": "12 of the 16"}]}
{"compound": "COc1ccc(Cc2nccc3cc(OC)c(OC)cc23)cc1OC", "note": "[papaverine]", "values": [{"measurement": "erection after injection directly into the corpus cavernosum", "setting": "corpus cavernosum", "value": "caused erection"}, {"measurement": "duration of erection after injection", "setting": "corpus cavernosum", "value": "unrelenting erection lasting for hours"}]}
{"compound": "CC(COc1ccccc1)N(CCCl)Cc1ccccc1", "note": "(centres unmarked) [phenoxybenzamine]", "values": [{"measurement": "erection after injection directly into the corpus cavernosum", "setting": "corpus cavernosum", "value": "caused erection"}, {"measurement": "duration of erection after injection", "setting": "corpus cavernosum", "value": "unrelenting erection lasting for hours"}]}
{"compound": "Cc1ccc(N(CC2=NCCN2)c2cccc(O)c2)cc1", "note": "[phentolamine mesylate]", "values": [{"measurement": "spontaneous erections", "setting": "[2]", "value": "did not exhibit spontaneous erections"}]}
{"compound": "Cc1ccc(N(CC2=NCCN2)c2cccc(O)c2)cc1", "note": "[phentolamine]", "values": [{"measurement": "erection after injection directly into the corpus cavernosum", "setting": "corpus cavernosum", "value": "caused erection"}]}
{"compound": "CC(=O)Oc1cc(C(C)C)c(OCCN(C)C)cc1C", "note": "[thymoxamine]", "values": [{"measurement": "erection after injection directly into the corpus cavernosum", "setting": "corpus cavernosum", "value": "caused erection"}]}
{"compound": "COc1ccc(CCN(C)CCCC(C#N)(c2ccc(OC)c(OC)c2)C(C)C)cc1OC", "note": "(centres unmarked) [verapamil]", "values": [{"measurement": "erection after injection directly into the corpus cavernosum", "setting": "corpus cavernosum", "value": "caused erection"}]}
{"compound": "COC(=O)[C@@H]1[C@H]2C[C@H]3c4[nH]c5ccccc5c4CCN3C[C@@H]2CC[C@@H]1O", "note": "[yohimbine]", "values": [{"measurement": "subjective improvement in erectile ability, impotent men treated", "setting": "impotent men", "value": 38, "unit": "%"}, {"measurement": "treated patients reporting complete satisfaction", "setting": "impotent men", "value": 5, "unit": "%"}]}
